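Following 48 hours of exposure in 96-well plates, responses at five concentrations were used to interpolate endpoints linearly. TGI denotes the concentration required for complete inhibition of growth.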
Assays:
Test in all cases: inhibition of tumour cell growth, NCI panel, 48 h
KM12 colon = test system: KM12 colon
ACHN renal = test system: ACHN renal
SK-MEL-5 melanoma = test system: SK-MEL-5 melanoma
OVCAR-5 ovarian = test system: OVCAR-5 ovarian
SK-MEL-28 melanoma = test system: SK-MEL-28 melanoma
HCC-2998 colon = test system: HCC-2998 colon
COLO 205 colon = test system: COLO 205 colon
SF-295 CNS = test system: SF-295 CNS
SF-539 CNS = test system: SF-539 CNS
UO-31 renal = test system: UO-31 renal
SK-MEL-2 melanoma = test system: SK-MEL-2 melanoma
NCI-H522 lung = test system: NCI-H522 lung
CAKI-1 renal = test system: CAKI-1 renal
RPMI-8226 leukemia = test system: RPMI-8226 leukemia
SNB-19 CNS = test system: SNB-19 CNS
RXF 393 renal = test system: RXF 393 renal

SMILES	TGI (KM12 colon) [µM]	TGI (ACHN renal) [µM]	TGI (SK-MEL-5 melanoma) [µM]	TGI (OVCAR-5 ovarian) [µM]	TGI (SK-MEL-28 melanoma) [µM]	TGI (HCC-2998 colon) [µM]	TGI (COLO 205 colon) [µM]	TGI (SF-295 CNS) [µM]	TGI (SF-539 CNS) [µM]	TGI (UO-31 renal) [µM]	TGI (SK-MEL-2 melanoma) [µM]	TGI (NCI-H522 lung) [µM]	TGI (CAKI-1 renal) [µM]	TGI (RPMI-8226 leukemia) [µM]	TGI (SNB-19 CNS) [µM]	TGI (RXF 393 renal) [µM]
Cc1cccc(N=Cc2ccc(N(CCC#N)S(=O)(=O)c3ccccc3)cc2C)c1	> 100	> 100	> 100	> 100	> 100	> 100	> 100	> 100	> 100	> 100	> 100	> 100	> 100	> 100	> 100	–
N#Cc1ccccc1NC(=O)C(=O)C(C(=O)c1ccncc1)C1OC(=O)c2ccccc21 (centres undefined)	> 100	> 100	> 100	> 100	> 100	> 100	> 100	> 100	> 100	> 100	–	> 100	> 100	–	> 100	> 100
CO/N=C(/C(=O)Nc1c[n+](CC(=O)[O-])cs1)c1csc(N)n1	> 100	> 100	> 100	> 100	–	> 100	> 100	> 100	> 100	> 100	> 100	> 100	> 100	> 100	> 100	–
CC12C3CC4C5CC(C(C53)[C@@H]1NCc1ccccc1)C42 (some centres undefined)	> 100	> 100	> 100	> 100	> 100	41.8	75.3	> 100	> 100	> 100	> 100	> 100	> 100	> 100	> 100	> 100

Reference: PubChem BioAssay (NCI)
